Experimental data from paper PMC6934184, “Selective DNA-PKcs inhibition extends the therapeutic index of localized radiotherapy and chemotherapy” (The Journal of Clinical Investigation, 2019).

Target: T1, ADRBK1 (GRK2) (Homo sapiens, UniProt P25098)
T1 construct: purchased Thermo Fisher Scientific (Life Technologies) SelectScreen
Assay: SelectScreen Z'LYTE
Type: biochemical
Outline: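 Compound tested in SelectScreen activity assays, Z'LYTE for CSF1R, CDK1/cyclin B and MAP2K6 and Adapta for CAMK1. ATP for CAMK1 was listed as 10, and Km app was used for CSF1R. Results are expressed in percent.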

T1 sequence (P25098 whole entry): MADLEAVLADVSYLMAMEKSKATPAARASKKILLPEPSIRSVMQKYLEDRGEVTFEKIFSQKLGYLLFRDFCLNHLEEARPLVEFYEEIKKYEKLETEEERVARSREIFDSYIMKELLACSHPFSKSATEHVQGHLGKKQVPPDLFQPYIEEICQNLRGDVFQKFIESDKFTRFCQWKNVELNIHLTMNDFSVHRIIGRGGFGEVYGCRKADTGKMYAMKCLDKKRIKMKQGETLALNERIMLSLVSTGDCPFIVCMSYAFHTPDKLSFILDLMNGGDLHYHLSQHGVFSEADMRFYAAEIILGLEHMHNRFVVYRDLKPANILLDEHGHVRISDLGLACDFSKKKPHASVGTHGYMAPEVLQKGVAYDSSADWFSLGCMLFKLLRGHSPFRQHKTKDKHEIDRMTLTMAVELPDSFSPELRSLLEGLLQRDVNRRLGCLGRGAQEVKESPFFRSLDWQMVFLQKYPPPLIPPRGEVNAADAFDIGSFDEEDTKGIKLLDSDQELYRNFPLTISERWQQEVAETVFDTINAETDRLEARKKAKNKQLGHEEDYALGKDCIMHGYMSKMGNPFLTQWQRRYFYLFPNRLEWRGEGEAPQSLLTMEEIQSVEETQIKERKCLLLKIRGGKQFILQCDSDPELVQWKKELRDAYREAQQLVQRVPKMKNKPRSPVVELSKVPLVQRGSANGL

CN(C(=O)CN1CCOCC1)c1ccc2sc3c(-c4cccc5c(=O)cc(N6CC7CCC(C6)O7)oc45)cccc3c2c1 [NU5455]
inhibition at 1 µM: -2%
